The values that follow come from PMC5978685, “Design, Synthesis, and Evaluation of Novel Immunomodulatory Small Molecules Targeting the CD40–CD154 Costimulatory Protein-Protein Interaction” (Molecules : A Journal of Synthetic Chemistry and Natural …, 2018).

The structures appear in SMILES notation.

In one assay the target is T1, TNF-R1–TNFα (Homo sapiens, UniProt P01375).
T1 construct: purchased Enzo Life Sciences
The assay can be described thus: cell-free ELISA-type binding inhibition assay, TNF-R1–TNFα. The following applies: cell-free TNF-R1–TNFα binding inhibition; read-out: TNF IC50. Here is the method:
(§1) In parallel with the CD40–CD154 assay, the ability of these compounds to inhibit other TNFSFR–TNFSF PPIs, including OX40–OX40L, BAFFR–BAFF, and TNF-R1–TNF-α, was also assessed (Figure 3B–D).
(§2) Binding inhibition assays were performed in a 96-well cell-free format as described before. Briefly, microtiter plates (Nunc F Maxisorp, 96-well; Thermo Fisher Scientific, Waltham, MA, USA) were coated overnight at 4 °C with 100 μL/well of Fc-conjugated receptors diluted in PBS pH 7.2. This was followed by blocking with 200 μL/well of blocking solution (PBS pH 7.2, 0.05% Tween-20, 1% BSA) for 1 h at RT. Then, plates were washed twice using washing solution (PBS pH 7.4, 0.05% Tween-20) and tapped dry before the addition of the appropriate FLAG tagged ligands along with different concentrations of tested dyes diluted in binding buffer (100 mM HEPES, 0.005% BSA pH 7.2) to give a total volume of 100 μL/well. After 1 h incubation, three washes were conducted, and anti-FLAG HRP conjugate was used to detect the bound FLAG-tagged ligand. Plates were washed four times before the addition of 120 μL/well of HRP substrate TMB (3,3′,5,5′-tetramethylbenzidine) and kept in the dark for up to 15 min. The reaction was stopped using 30 μL of 1M H2SO4, and the absorbance value was read at 450 nm. The concentrations of receptors used were 0.3 μg/mL for CD40, TNF-R1, and BAFFR; 0.6 μg/mL for OX40. The concentrations of the ligands were fixed at 0.02 μg/mL for CD154 and TNF-α, 0.06 μg/mL for OX40L, and 0.03 μg/mL for BAFF. These values were selected following preliminary testing to optimize response (i.e., to produce a high-enough signal at conditions close to half-maximal response, EC50). […] To verify that inhibition is not due to colloidal aggregation, CD40 binding inhibition was also measured in the presence of the non-ionic detergent Triton-X 100 (0.01%), as recommended for the detection of such effects.
(§3) All binding inhibition and cell assays were tested in duplicate or triplicate per plates, and assays were performed as at least three independent experiments. As before, binding and cytotoxicity data were converted to percent inhibition and fitted with standard log inhibitor vs. normalized response models using nonlinear regression in GraphPad Prism (GraphPad, La Jolla, CA, USA) to establish half-maximal (median) inhibitory concentration (IC50) or median lethal concentration (LC50) values. Cell assay data were fitted with a similar model that also allowed for a variable slope using the log inhibitor vs. normalized response (variable slope) model from Prism with a Hill slope (n) shared across all compounds. Cell assays and draining lymph node data were analyzed by one-way repeated-measures analysis of variance (ANOVA) followed by Dunnett’s multiple comparison test as a post hoc test for individual differences using GraphPad Prism and a significance level of p < 0.05 for all comparisons.
(§4) Data are (counterclockwise) for human CD40–CD154 (CD40L) (A); OX40–OX40L (B); BAFFR–BAFF (C); and TNF-R1–TNFα (D) and were fitted with standard binding curves. Data are average ± SD (normalized to percent binding) for n = 3 independent experiments with duplicates for each condition.
Background: ELISA stands for enzyme-linked immunosorbent assay.

The next assay has as its target T2, CD40–CD154 (CD40L) (Homo sapiens, UniProt P29965).
T2 construct: purchased Enzo Life Sciences
T2 sequence (P29965 116-261 limits assumed): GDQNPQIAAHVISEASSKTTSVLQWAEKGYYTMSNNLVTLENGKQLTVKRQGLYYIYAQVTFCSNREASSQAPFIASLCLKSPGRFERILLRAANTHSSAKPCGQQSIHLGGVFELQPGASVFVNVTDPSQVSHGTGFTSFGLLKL
Description: cell-free ELISA-type binding inhibition assay, CD40–CD154. The following applies: cell-free CD40–CD154 binding inhibition; read-out: CD40 IC50.
Source text: As a first assessment, the CD40–CD154 inhibitory activity of compounds 6–19 (Figure 2, Table 1) was quantified using a cell-free in vitro binding inhibition assay as described before. Data fitted with typical sigmoidal concentration dependence curves (log inhibitor versus response model in GraphPad Prism, Hill slope n = 1) are summarized in Figure 3A. […] Polymolecular conglomeration and/or aggregation is often a cause of promiscuous inhibition in screening assays. Therefore, just as in our previous work, we checked for this, and we confirmed for several compounds that inhibition due to aggregation is not the case by retesting inhibitory activity in the presence of a non-ionic detergent (Triton-X 100, 0.01%) as recommended for the detection of such effects.
as §2, §3, §4

The next assay addresses T3, OX40–OX40L (Homo sapiens, UniProt P23510).
T3 construct: purchased Enzo Life Sciences
T3 sequence (P23510 51-183 limits assumed): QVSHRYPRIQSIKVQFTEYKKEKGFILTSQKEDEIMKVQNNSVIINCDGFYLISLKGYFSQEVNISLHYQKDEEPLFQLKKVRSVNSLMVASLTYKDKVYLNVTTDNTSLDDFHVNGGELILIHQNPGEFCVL
The assay can be described thus: cell-free ELISA-type binding inhibition assay, OX40–OX40L. As for the experimental part:
as §1, §2, §3, §4

The target in another assay is T4, BAFFR–BAFF (Homo sapiens, UniProt Q9Y275).
T4 construct: purchased Enzo Life Sciences
The assay can be described thus: cell-free ELISA-type binding inhibition assay, BAFFR–BAFF. Here is the method:
as §1, §2, §3, §4

The subject of assay [1] is alloantigen-induced T cell response in draining popliteal lymph node. The assay can be described thus: alloantigen-induced T cell expansion in draining lymph node. The following applies: Balb/c mice, DBA-2 splenocytes in footpad; 10–20 mg/kg s.c. b.i.d.; p < 0.0001 vs vehicle. The assay is classed as in vivo, mouse (Balb/c). Here is the method:
The most promising compounds of the present series were evaluated for in vivo activity using the same model of alloantigen-induced T cell expansion in the draining lymph nodes (DLNs) that was described before. This procedure involved injection of splenocytes isolated from DBA-2 mice into the footpad of Balb/c recipients. Within three full days, this causes a significant increase in the number of cells in the draining popliteal lymph node, and this is inhibited by compounds with immunosuppressive activity.
The ability to inhibit alloantigen-induced T cell response in a draining lymph node was tested as described before. In brief, BALB/c mice (10–12 weeks old, female) received a footpad injection of 1 × 10^7 splenocytes isolated from DBA-2 mice (10–12 weeks old, male). CD154 antibody (MR-1; 20 mg/kg, day −1 and 0) or test compounds (20–60 mg/kg; b.i.d. from day −1 to 3, in 20% HPβCD) were administered s.c., and the draining popliteal lymph nodes (DLNs) were collected 3 days after the alloantigen challenge. DLN cells were counted and data are shown as mean ± SD (n = 3–4 per group).
as §3
Figure 6 Inhibition of alloantigen-induced T cell response in a draining lymph node by compounds 6, 15, 18, and 19. Mice (Balb/c) received a footpad injection of allogeneic splenocytes (isolated from DBA-2 mice) and were treated with anti-CD154 antibody (MR-1; 20 mg/kg, day −1 and 0) or compounds as shown (10–40 mg/kg, b.i.d. from day −1 to 3, s.c. in 20% HPβCD). Draining (popliteal) lymph nodes were collected three days after the alloantigen challenge and cells were counted. Data are shown as mean ± SD. Significant differences compared to vehicle-treated controls are indicated by asterisks (**** p < 0.0001; one-way ANOVA followed by Dunnett’s multiple comparison test).

T1 sequence (P01375 85-233 limits assumed): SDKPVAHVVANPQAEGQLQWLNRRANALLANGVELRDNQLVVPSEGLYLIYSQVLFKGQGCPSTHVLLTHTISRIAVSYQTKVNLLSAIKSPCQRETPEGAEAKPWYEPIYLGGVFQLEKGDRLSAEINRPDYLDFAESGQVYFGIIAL
T4 sequence (Q9Y275 134-285 limits assumed): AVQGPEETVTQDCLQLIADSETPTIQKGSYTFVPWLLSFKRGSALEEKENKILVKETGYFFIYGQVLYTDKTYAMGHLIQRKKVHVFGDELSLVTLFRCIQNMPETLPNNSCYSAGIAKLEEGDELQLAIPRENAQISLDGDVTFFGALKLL

With `Cc1cc(NC(=O)c2ccc([N+](=O)[O-])cc2)ccc1-c1ccc(C(=O)Nc2cccc3cccc(S(=O)(=O)O)c23)cc1C` [Compound 16, 8-(2,2′-Dimethyl-4′-(4-nitrobenzamido)-[1,1′-biphenyl]-4-carboxamido)naphthalene-1-sulfonic acid], the IC50 (as a rule, the point on the concentration scale where inhibition reaches its midpoint) came to 61.5 µM on TNF-R1–TNFα, 44.8 µM on CD40–CD154 (CD40L), 7.28 µM on OX40–OX40L and 26.7 µM on BAFFR–BAFF.
Take `COC(=O)c1ccc(C(=O)Nc2ccc(-c3ccc(C(=O)Nc4cccc5cccc(S(=O)(=O)O)c45)cc3)cc2)cc1[N+](=O)[O-]` [Compound 13, 8-(4′-(4-(Methoxycarbonyl)-3-nitrobenzamido)biphenyl-4-ylcarboxamido)naphthalene-1-sulfonic acid]: the IC50 at TNF-R1–TNFα was found to be 674 µM; on CD40–CD154 (CD40L), 0.39 µM; at OX40–OX40L, 86.2 µM; at BAFFR–BAFF, 5.27 µM.
Consider `O=C(Nc1ccc(-c2ccc(C(=O)Nc3cccc4c(S(=O)(=O)O)cccc34)cc2)cc1)c1ccc([N+](=O)[O-])cc1` [Compound 7, 5-(4′-(4-Nitrobenzamido)-[1,1′-biphenyl]-4-carboxamido)naphthalene-1-sulfonic acid], for which the IC50 on TNF-R1–TNFα turned out to be 555 µM; at CD40–CD154 (CD40L) it was 0.299 µM; on OX40–OX40L it was 9.34 µM; at BAFFR–BAFF, 2.01 µM.
As for `O=C(Nc1cccc2cccc(S(=O)(=O)O)c12)c1ccc(-c2ccc(NC(=O)c3ccc([N+](=O)[O-])cc3[N+](=O)[O-])cc2)cc1` [Compound 12, 8-(4′-(2,4-Dinitrobenzamido)-[1,1′-biphenyl]-4-carboxamido)naphthalene-1-sulfonic acid], the IC50 at TNF-R1–TNFα turned out to be 61.7 µM; at CD40–CD154 (CD40L) it was 50.5 µM; at OX40–OX40L, 10.3 µM; on BAFFR–BAFF it was 38.1 µM.
Turning to `COC(=O)c1cccc2c(NC(=O)c3ccc(-c4ccc(NC(=O)c5ccc([N+](=O)[O-])cc5)cc4)cc3)cccc12` [Compound 9, Methyl 5-(4′-(4-nitrobenzamido)-[1,1′-biphenyl]-4-carboxamido)-1-naphthoate], the IC50 is 796 µM at TNF-R1–TNFα, 56 µM on CD40–CD154 (CD40L), > 1000 µM at OX40–OX40L and 686 µM on BAFFR–BAFF.
For `O=C(Nc1ccc(-c2ccc(C(=O)Nc3cccc4cccc(S(=O)(=O)O)c34)cc2)cc1)c1ccc(C(F)(F)F)cc1` [Compound 8, 8-(4′-(4-(trifluoromethyl)benzamido)biphenyl-4-ylcarboxamido)naphthalene-1-sulfonic acid], the IC50 on TNF-R1–TNFα was found to be 61.1 µM; on CD40–CD154 (CD40L), 57.8 µM; on OX40–OX40L it was 10.1 µM; at BAFFR–BAFF it was 42.2 µM.
In the same order, the values of `O=C(Nc1ccc(-c2ccc(C(=O)Nc3ccc(S(=O)(=O)O)c4cccc(S(=O)(=O)O)c34)cc2)cc1)c1ccc([N+](=O)[O-])cc1` [Compound 10, 4-(4′-(4-Nitrobenzamido)-[1,1′-biphenyl]-4-carboxamido)naphthalene-1,5-disulfonic acid] are 688 µM, 68.3 µM, 135 µM and 440 µM.
As to `O=C(Nc1ccc2cc(C(=O)Nc3cccc4cccc(S(=O)(=O)O)c34)ccc2c1)c1ccc([N+](=O)[O-])cc1` [Compound 17, 8-(6-(4-Nitrobenzamido)-2-naphthamido)naphthalene-1-sulfonic acid], the IC50 turned out to be 118 µM on TNF-R1–TNFα, 57.5 µM on CD40–CD154 (CD40L), 36.6 µM on OX40–OX40L and 81.4 µM on BAFFR–BAFF.
For the compound `COC(=O)c1ccc(C(=O)Nc2ccc(-c3ccc(C(=O)Nc4cccc5cccc(S(=O)(=O)O)c45)cc3)nc2)cc1` [Compound 19, 8-(4-(5-(4-(Methoxycarbonyl)benzamido)pyridin-2-yl)benzamido)naphthalene-1-sulfonic acid], the IC50 was 182 µM on TNF-R1–TNFα, 2.41 µM on CD40–CD154 (CD40L), 6.97 µM on OX40–OX40L and 13.8 µM on BAFFR–BAFF. For the same compound, in assay [1], the “inhibition of alloantigen-induced T cell expansion in draining lymph node” value is “inhibited the alloantigen-induced T cell response in this model in statistically significant manner”.
